{"source": "patent US11559525B2", "about": "“Therapeutic drug for dyskinesia” (Sumitomo Pharma Co., Ltd., priority 2019, dated 2023)", "key": {"[1]": {"tested_on": "PD-LID rat model (6-OHDA-lesioned rats)", "assay": "Oral administration of tandospirone citrate on dyskinesia-like symptoms in PD-LID rat model", "type": "in vivo", "description": "The behavior was observed and evaluated using the same method as Example 2. […] After 5 minutes, a levodopa containing solution was intraperitoneally administered, and the behavior was observed and evaluated. The results in the drawings are indicated in terms of mean value±standard error. The test results were statistically analyzed by comparison with the solvent administration group by Steel test using the total AIMs score in 3 hours and total AIMs score in 100 to 180 minutes as parameters. * indicates p<0.05, meaning that there is a significant difference. The dosage was described as a numerical value converted in terms of tandospirone free form."}, "[2]": {"tested_on": "PD-LID rat model (6-OHDA-lesioned rats)", "assay": "ON-time prolongation action (ON score, ON time without dyskinesia) in PD-LID rat model", "type": "in vivo", "settings": "oral 100 mg/kg as citrate", "description": "To make a PD-LID rat model, a mixture of levodopa methyl ester hydrochloride (6 mg/kg; Sigma-Aldrich) dissolved in saline and benserazide hydrochloride (15 mg/kg; Sigma-Aldrich) (hereinafter, also referred to as “levodopa containing solution”) was intraperitoneally administered once daily to 6-OHDA-lesioned rats. The levodopa containing solution was repeatedly administered for 3 weeks or longer to observe and evaluate the behavior. […] The sum of the scores for Limb AIMs, Axial AIMs, and Orolingual AIMs in 3 hours was used as the total dyskinesia-like symptom (AIMs) score. Individuals with a total AIMs score of less than 10 were excluded from the test as not manifesting a dyskinesia-like symptom. The behavior was observed and evaluated before the drug evaluation date. The rats were assigned to each dosing group by using the 3 hour total dyskinesia-like symptom (AIMs) score, Locomotive behavior score, and rat body weight as indicators, which were used for evaluation of drugs. For an indicator of dyskinesia behavior, the sum of the Limb AIMs, Axial AIMs, and Orolingual AIMs at each evaluation point was used as the AIMs score. For the rotational behavior (ON score), Locomotive behavior at each evaluation point was used as an indicator. The total ON score in 3 hours was used as the total ON score. For ON time without dyskinesia, the period during which the AIMs score is 0 and Locomotive behavior is 1 or greater at each evaluation point was added. Duration of action of levodopa without a dyskinesia symptom (ON time without dyskinesia) refers to the aggregate time with no dyskinesia during the antiparkinsonian action effective time, i.e., “ON-time”, and defined as the time during which the dyskinesia symptom (AIMs) score is 0 and the rotational behavior (Locomotive behavior) score is 1 or greater at each evaluation point after levodopa administration. […] After 5 minutes, a levodopa containing solution was intraperitoneally administered, and the behavior was observed and evaluated. The results in the drawings are indicated in terms of mean value±standard error. The test results were statistically analyzed by comparison with the solvent administration group using the Steel test with the total ON score in 3 hours or ON time without dyskinesia as an indicator. ** indicates p<0.01, meaning that there is a significant difference. For evaluation of a tape agent, the abdominal regions of the rats were shaved prior to the evaluation date. […] After 4 hours from application, a levodopa containing solution was intraperitoneally administered to observe and evaluate the behavior. The results in the drawings are indicated in terms of mean value±standard error. Individuals with 50% or more of the tape agent coming off during the test were excluded from analysis. The test results were statistically analyzed by comparison with the placebo tape administration group using Wilcoxon rank sum test with the total ON score in 3 hours or ON time without dyskinesia as an indicator. * indicates p<0.05 and ** indicates […], meaning that there is a significant difference compared to the solvent oral administration group or the placebo tape administration group."}, "[3]": {"biological_target": "dopamine 2 receptors (Homo sapiens, UniProt P14416)", "sequence (P14416 whole entry)": "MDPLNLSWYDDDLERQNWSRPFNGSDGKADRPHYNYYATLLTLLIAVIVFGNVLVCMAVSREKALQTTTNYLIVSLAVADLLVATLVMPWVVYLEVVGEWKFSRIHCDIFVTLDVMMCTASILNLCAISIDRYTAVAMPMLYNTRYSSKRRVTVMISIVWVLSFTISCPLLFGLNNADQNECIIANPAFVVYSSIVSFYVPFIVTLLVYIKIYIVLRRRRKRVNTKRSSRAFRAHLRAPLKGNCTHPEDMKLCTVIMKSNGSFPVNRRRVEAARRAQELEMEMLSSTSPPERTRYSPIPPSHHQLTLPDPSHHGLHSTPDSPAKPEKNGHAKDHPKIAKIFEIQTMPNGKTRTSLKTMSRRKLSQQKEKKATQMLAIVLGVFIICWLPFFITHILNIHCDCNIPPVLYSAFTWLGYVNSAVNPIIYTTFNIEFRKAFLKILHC", "settings": "in vitro; cited from earlier work"}, "[4]": {"settings": "oral 20 mg/kg as free form, FIGS. 7A-7C"}, "[5]": {"settings": "oral 20 mg/kg as free form, FIGS. 8A-8L"}}, "note": "Marks after values point to notes of the source that are not given here."}
{"compound": "O=C1[C@@H]2[C@H]3CC[C@H](C3)[C@@H]2C(=O)N1CCCCN1CCN(c2ncccn2)CC1", "note": "[tandospirone, (1R,2S,3R,4S)—N-[4-{4-(pyrimidine-2-yl)piperadine-1-yl}butyl]-2,3-bicyclo[2.2.1]heptanedicarboximide]", "values": [{"measurement": "(i) Indicator of degree of improvement in dyskinesia symptom, in words", "setting": "[1]; oral 6.7 mg/kg as free form", "result": "No improvement"}, {"measurement": "(i) difference in total AIMs score in 3 hours (solvent minus tandospirone)", "setting": "[1]; oral 6.7 mg/kg as free form", "result": "−3.1"}, {"measurement": "(ii) Indicator of rebound symptom of dyskinesia, in words", "setting": "[1]; oral 6.7 mg/kg as free form", "result": "Exacerbating trend"}, {"measurement": "(ii) difference in total AIMs score in 100 to 180 minutes (solvent minus tandospirone)", "setting": "[1]; oral 6.7 mg/kg as free form", "result": "−3.5"}, {"measurement": "(i) Indicator of degree of improvement in dyskinesia symptom, in words", "setting": "[1]; oral 20 mg/kg as free form", "result": "No improvement"}, {"measurement": "(ii) Indicator of rebound symptom of dyskinesia, in words", "setting": "[1]; oral 20 mg/kg as free form", "result": "Exacerbation"}, {"measurement": "(i) difference in total AIMs score in 3 hours (solvent minus tandospirone)", "setting": "[1]; [4]", "result": "−6.5(FIGS. 7A-7C)"}, {"measurement": "(ii) difference in total AIMs score in 100 to 180 minutes (solvent minus tandospirone)", "setting": "[1]; [4]", "result": "−9.1*(FIGS. 7A-7C)"}, {"measurement": "(i) difference in total AIMs score in 3 hours (solvent minus tandospirone)", "setting": "[1]; [5]", "result": "−8.6(FIGS. 8A-8L)"}, {"measurement": "(ii) difference in total AIMs score in 100 to 180 minutes (solvent minus tandospirone)", "setting": "[1]; [5]", "result": "−8.5*(FIGS. 8A-8L)"}, {"measurement": "(i) Indicator of degree of improvement in dyskinesia symptom, in words", "setting": "[1]; oral 67 mg/kg as free form", "result": "No improvement"}, {"measurement": "(i) difference in total AIMs score in 3 hours (solvent minus tandospirone)", "setting": "[1]; oral 67 mg/kg as free form", "result": 2.9}, {"measurement": "(ii) Indicator of rebound symptom of dyskinesia, in words", "setting": "[1]; oral 67 mg/kg as free form", "result": "Exacerbation"}, {"measurement": "(ii) difference in total AIMs score in 100 to 180 minutes (solvent minus tandospirone)", "setting": "[1]; oral 67 mg/kg as free form", "result": "−10.1*"}, {"measurement": "ON-time without dyskinesia for 180 minutes (Locomotive behavior ≥1, and AIMs score=0)", "setting": "[2]", "result": "prolongation of ON time without dyskinesia was observed only at a dose at which there is a risk of side effects"}, {"measurement": "affinity in receptor binding", "setting": "[3]", "result": "low affinity"}]}
